Measurements: patent publication US7880010B2, “Crystalline forms of a dimethylphenyl compound” (Theravance, Inc., priority 2006, dated 2011)

Columns and labels:
hM2 receptor = molecular target: T1, hM2 receptor (Homo sapiens, UniProt P08172); experiment: Blockade of agonist-mediated [35S]GTPγS binding (Assay B); type: biochemical; conditions: CHO-K1 cells expressing the hM2 receptor
T1 construct: expressed in transfected cells; host or cells: CHO / CHO-K1
T1 sequence (P08172 1-466): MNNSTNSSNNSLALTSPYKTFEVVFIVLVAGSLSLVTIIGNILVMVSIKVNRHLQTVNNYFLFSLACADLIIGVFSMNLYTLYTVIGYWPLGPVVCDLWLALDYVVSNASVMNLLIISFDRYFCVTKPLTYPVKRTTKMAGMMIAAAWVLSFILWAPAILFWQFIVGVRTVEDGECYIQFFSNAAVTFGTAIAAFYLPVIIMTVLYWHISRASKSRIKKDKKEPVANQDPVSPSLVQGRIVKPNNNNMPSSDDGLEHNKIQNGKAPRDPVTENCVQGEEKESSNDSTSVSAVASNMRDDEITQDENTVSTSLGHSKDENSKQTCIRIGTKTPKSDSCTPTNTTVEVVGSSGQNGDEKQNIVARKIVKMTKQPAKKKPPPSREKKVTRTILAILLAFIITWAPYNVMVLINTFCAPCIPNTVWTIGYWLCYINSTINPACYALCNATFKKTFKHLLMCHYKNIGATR
Description: In this functional assay, the functional potency of a test compound as an antagonist of the hM2 receptor was determined by measuring the ability of the test compound to block oxotremorine-stimulated [^35S]GTPγS binding in CHO-K1 cells expressing the hM2 receptor.
At the time of use, frozen membranes were thawed and then diluted in assay buffer with a final target tissue concentration of 5 to 10 μg protein per well. The membranes were briefly homogenized using a Polytron PT-2100 tissue disrupter and then added to the assay plates.
The EC90 value (effective concentration for 90% maximal response) for stimulation of [^35S]GTPγS binding by the agonist oxotremorine was determined in each experiment.
To determine the ability of a test compound to inhibit oxotremorine-stimulated [^35S]GTPγS binding, the following was added to each well of 96 well plates: 25 μL of assay buffer with [^35S]GTPγS (0.4 nM), 25 μL of oxotremorine(EC90) and GDP (3 uM), 25 μL of diluted test compound and 25 μL CHO cell membranes expressing the hM2 receptor. […] Microscint-20 scintillation liquid (50 μL) was added to each well, and each plate was sealed and radioactivity counted on a Topcounter (PerkinElmer). Data were analyzed by nonlinear regression analysis with the GraphPad Prism Software package (GraphPad Software, Inc., San Diego, Calif.) using the non-linear regression, one-site competition equation. […]

[1] = molecular target: T2, human β3 adrenergic receptor (Homo sapiens, UniProt P13945); experiment: Whole-cell cAMP Flashplate assay, heterologously expressed receptor; type: cell-based; conditions: CHO-K1 cells
T2 construct: expressed in transfected cells; host or cells: CHO / CHO-K1
Description: (§1) cAMP assays were performed in a radioimmunoassay format using the Flashplate Adenylyl Cyclase Activation Assay System with [^125I]-cAMP (NEN SMP004, PerkinElmer Life Sciences Inc., Boston, Mass.), according to the manufacturers instructions. For the determination of β1 and β2 […], […] HEK-293 cell lines stably expressing cloned human, β1 and β2 receptors were grown to near confluency in DMEM supplemented with 10% FBS and Geneticin (500 μg/mL). For the determination β3 receptor agonist potency (EC50), CHO-K1 cell line stably expressing cloned human or β3 adrenergic receptors was grown to near confluency in Hams F-12 media supplemented with 10% FBS and Geneticin (250 μg/mL). Cells were rinsed with PBS and detached in dPBS (Dulbecco's Phosphate Buffered Saline, without CaCl2 and MgCl2) containing 2 mM EDTA or Trypsin-EDTA solution (0.05% trypsin/0.53 mM EDTA). After counting cells in Coulter cell counter, cells were pelleted by centrifugation at 1,000 rpm and re-suspended in stimulation buffer containing IBMX (PerkinElmer Kit) pre-warmed to room temperature to a concentration of 1.6×10^6 to 2.8×10^6 cells/mL. About 40,000 to 80,000 cells per well were used in this assay. Test compounds (10 mM in DMSO) were diluted into PBS containing 0.1% BSA in Beckman Biomek-2000 and tested at 11 different concentrations ranging from 100 μM to 1 pM. Reactions were incubated for 10 min at 37° C. and stopped by adding 100 μL of cold detection buffer containing [^125I]-cAMP (NEN SMP004, PerkinElmer Life Sciences, Boston, Mass.). The amount of cAMP produced (pmol/well) was calculated based on the counts observed for the samples and cAMP standards as described in the manufacturer's user manual. Data were analyzed by nonlinear regression analysis with the GraphPad Prism Software package (GraphPad Software, Inc., San Diego, Calif.) with the sigmoidal equation. The Cheng-Prusoff equation (Cheng Y, and Prusoff W H., Biochemical Pharmacology, 1973, 22, 23, 3099-108) was used to calculate the […] values.

[2] = molecular target: T3, human β1 adrenergic receptor (Homo sapiens, UniProt P08588); experiment: as above; type: cell-based; conditions: HEK-293 cells
T3 construct: expressed in transfected cells; host or cells: HEK-293
Description: as §1

[3] = molecular target: T4, human β2 adrenergic receptor (Homo sapiens, UniProt P07550); experiment: as above; type: cell-based; conditions: HEK-293 cells
T4 construct: expressed in transfected cells; host or cells: HEK-293
Description: as §1

T3 sequence (P08588 whole entry): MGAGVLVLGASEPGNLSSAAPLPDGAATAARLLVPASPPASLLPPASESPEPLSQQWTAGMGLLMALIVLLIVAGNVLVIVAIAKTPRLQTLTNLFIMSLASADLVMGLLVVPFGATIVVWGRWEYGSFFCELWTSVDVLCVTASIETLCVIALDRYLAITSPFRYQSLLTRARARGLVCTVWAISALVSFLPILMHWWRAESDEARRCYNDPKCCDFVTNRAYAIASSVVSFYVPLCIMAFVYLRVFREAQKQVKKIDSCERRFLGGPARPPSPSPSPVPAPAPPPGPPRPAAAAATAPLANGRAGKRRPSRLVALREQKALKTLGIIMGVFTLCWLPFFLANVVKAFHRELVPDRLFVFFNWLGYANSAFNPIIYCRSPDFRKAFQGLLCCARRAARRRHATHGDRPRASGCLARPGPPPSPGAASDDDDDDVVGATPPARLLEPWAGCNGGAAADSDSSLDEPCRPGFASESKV
T4 sequence (P07550 whole entry): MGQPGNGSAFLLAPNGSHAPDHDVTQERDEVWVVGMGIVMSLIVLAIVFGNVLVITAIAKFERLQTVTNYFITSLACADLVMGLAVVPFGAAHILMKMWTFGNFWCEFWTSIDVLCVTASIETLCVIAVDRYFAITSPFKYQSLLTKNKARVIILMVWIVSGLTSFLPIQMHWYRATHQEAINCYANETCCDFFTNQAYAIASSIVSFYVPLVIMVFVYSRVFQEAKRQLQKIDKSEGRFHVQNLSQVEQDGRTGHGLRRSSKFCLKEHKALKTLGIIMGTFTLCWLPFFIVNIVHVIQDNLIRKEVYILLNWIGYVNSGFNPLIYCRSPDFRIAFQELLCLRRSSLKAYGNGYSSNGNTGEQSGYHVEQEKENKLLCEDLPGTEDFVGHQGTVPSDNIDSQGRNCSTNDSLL
T2 sequence (P13945 whole entry): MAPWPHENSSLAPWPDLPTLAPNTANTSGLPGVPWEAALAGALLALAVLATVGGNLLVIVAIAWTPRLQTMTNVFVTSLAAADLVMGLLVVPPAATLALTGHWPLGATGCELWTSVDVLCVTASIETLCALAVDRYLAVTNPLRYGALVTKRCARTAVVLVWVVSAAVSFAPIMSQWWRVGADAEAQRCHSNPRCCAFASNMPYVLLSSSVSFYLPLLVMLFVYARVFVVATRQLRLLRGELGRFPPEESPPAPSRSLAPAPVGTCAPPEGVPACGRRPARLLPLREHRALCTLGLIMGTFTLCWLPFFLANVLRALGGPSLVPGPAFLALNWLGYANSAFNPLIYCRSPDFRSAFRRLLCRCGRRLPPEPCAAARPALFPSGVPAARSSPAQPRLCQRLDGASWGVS

## Cc1cc(NC(=O)CCN2CCC(OC(=O)Nc3ccccc3-c3ccccc3)CC2)c(C)cc1CNC[C@H](O)c1ccc(O)c(NC=O)c1 [compound of formula I, biphenyl-2-ylcarbamic acid 1-[2-(4-{[(R)-2-(3-formylamino-4-hydroxyphenyl)-2-hydroxyethylamino]methyl}-2,5-dimethylphenylcarbamoyl)ethyl]-piperidin-4-yl ester]
hM2 receptor
  Kobs for blockade of oxotremorine-stimulated [35S]GTPγS binding: less than 10 nM
[1]
  EC50: > 700 nM
[2]
  EC50: ~30 nM
[3]
  EC50: < 10 nM
